One experiment can be described thus: (§1) Membrane potential dye assay: HEK-293 cells overexpressing the channel of interest were seeded in a 96-well plate at a density of 30000 cells/well and incubated at 37° C./5% CO2 for 48 hr. The assay was carried out using the Red Membrane Potential Dye (Molecular Devices) following the manufacturer's instructions. Briefly, the cells were incubated with 1× red membrane potential dye for 1.5 hour. The cells were then treated with various concentrations of the test compounds for 15-20 min followed by depolarization with 10-30 μM Veratridine. The fluorescence was read following excitation at 510-545 nm and emission at 565-625 nm in FLIPR. The “max-min” fluorescence values were used to calculate the % inhibition. As to conditions: HEK293.
With `O=S(=O)(Nc1ncccn1)c1ccc2c(c1)OCC[C@H]2c1ccc(C(F)(F)F)cc1OCCCF`, the concentration for half-maximal inhibition (IC50) (in general, the concentration needed to halve the response being measured) was above 10 µM.
On the same count and under the same terms, the same measure for `O=S(=O)(Nc1ncc(F)cn1)c1ccc2c(c1)OCC[C@@H]2c1ccc(C(F)(F)F)cc1-c1nccs1`: above 10 µM.
Same read-out and setting: the same measure for `O=S(=O)(Nc1cccc(F)n1)c1ccc2c(c1)OCC[C@H]2c1ccc(C(F)(F)F)cc1O[C@H]1CCOC1`: above 10 µM; for `O=S(=O)(Nc1ncccn1)c1ccc2c(c1)OCC[C@H]2c1ccc(C(F)(F)F)cc1O[C@H]1CCOC1`: above 10 µM; for `O=S(=O)(Nc1ncc(F)cn1)c1ccc2c(c1)OCC[C@H]2c1ccc(C(F)(F)F)cc1-c1nccs1`: above 10 µM.
Consider `CCCc1cc(C(F)(F)F)ccc1[C@@H]1CCOc2cc(S(=O)(=O)Nc3ncc(F)cn3)ccc21`, for which the IC50 is above 10 µM.
The same measure, in the same setting: the value for `O=S(=O)(Nc1ncc(F)cn1)c1ccc2c(c1)OCC[C@@H]2c1ccc(C(F)(F)F)cc1-n1ccnn1` was above 10 µM; that for `Cn1nccc1-c1cc(C(F)(F)F)ccc1[C@H]1CCOc2cc(S(=O)(=O)Nc3cccnc3F)ccc21` was above 10 µM; that for `O=S(=O)(Nc1ncccn1)c1ccc2c(c1)OCC[C@H]2c1ccc(C(F)(F)F)cc1-n1ccnn1` was above 10 µM.
On the same count and under the same terms, the same measure for `O=C(O)c1ccc(-c2cc(C(F)(F)F)ccc2[C@H]2CCOc3cc(S(=O)(=O)Nc4cccc(F)n4)ccc32)cc1` (racemic): above 10 µM; for `COc1cc(C(F)(F)F)ccc1[C@H]1CCOc2cc(S(=O)(=O)Nc3ncccn3)ccc21`: above 10 µM.
On the same count and under the same terms, the same measure for `COCCCc1cc(C(F)(F)F)ccc1[C@@H]1CCOc2cc(S(=O)(=O)Nc3ncccn3)ccc21`: above 10 µM.
With `O=S(=O)(Nc1ccncn1)c1ccc2c(c1)OCC[C@H]2c1ccc(C(F)(F)F)cc1-n1ccnn1`, the IC50 was above 10 µM.
Still for that read-out and setting: the same measure for `O=S(=O)(Nc1cccc(F)n1)c1ccc2c(c1)OCC[C@H]2c1ccc(C(F)(F)F)cc1OC1CCOCC1`: 3.65 µM.
Turning to `O=S(=O)(Nc1cccc(F)n1)c1ccc2c(c1)OCC[C@@H]2c1ccc(C(F)(F)F)cc1-n1cccn1`, the IC50 is above 10 µM.
Still for that read-out and setting: the value for `O=S(=O)(Nc1ncc(F)cn1)c1ccc2c(c1)OCC[C@H]2c1ccc(C(F)(F)F)cc1-n1ccnn1` was above 10 µM; that for `Cn1nccc1-c1cc(C(F)(F)F)ccc1[C@@H]1CCOc2cc(S(=O)(=O)Nc3cnccn3)ccc21` was above 10 µM.
Still for that read-out and setting: the value for `O=S(=O)(Nc1cccnn1)c1ccc2c(c1)OCC[C@H]2c1ccc(C(F)(F)F)cc1OC1CCOCC1` was above 10 µM.
On the same count and under the same terms, the same measure for `CCOc1ccc(-c2cc(C(F)(F)F)ccc2[C@H]2CCOc3cc(S(=O)(=O)Nc4ncc(F)cn4)ccc32)cn1`: above 10 µM.
As to `O=S(=O)(Nc1ccncn1)c1ccc2c(c1)OCC[C@H]2c1ccc(C(F)(F)F)cc1OC1CCOCC1`, the IC50 is above 10 µM.
The same measure, in the same setting: the same measure for `O=S(=O)(Nc1ncccn1)c1ccc2c(c1)OCC[C@H]2c1ccc(C(F)(F)F)cc1-c1ccc(F)cn1`: above 10 µM.
Same read-out and setting: the same measure for `O=C(O)c1ccc(-c2cc(C(F)(F)F)ccc2[C@H]2CCOc3cc(S(=O)(=O)Nc4ncc(F)cn4)ccc32)cc1`: above 10 µM; for `CS(=O)(=O)CCc1cc(C(F)(F)F)ccc1[C@@H]1CCOc2cc(S(=O)(=O)Nc3ncc(F)cn3)ccc21`: above 10 µM; for `Cc1nc(-c2cc(C(F)(F)F)ccc2[C@H]2CCOc3cc(S(=O)(=O)Nc4ncc(F)cn4)ccc32)cs1`: above 10 µM.
Consider `O=S(=O)(Nc1ccncn1)c1ccc2c(c1)OCC[C@H]2c1ccc(C(F)(F)F)cc1-c1ccc(F)cc1`, for which the half-inhibitory concentration (IC50) is above 10 µM.
Same read-out and setting: the value for `CS(=O)(=O)CCc1cc(C(F)(F)F)ccc1[C@H]1CCOc2cc(S(=O)(=O)Nc3ncccn3)ccc21` was above 10 µM; that for `Cc1ccnc(NS(=O)(=O)c2ccc3c(c2)OCC[C@H]3c2ccc(C(F)(F)F)cc2-c2ccnn2C)n1` was above 10 µM; that for `O=S(=O)(Nc1ncc(F)cn1)c1ccc2c(c1)OCC[C@@H]2c1ccc(C(F)(F)F)cc1CCF` (racemic) was above 10 µM.
On the same count and under the same terms, the value for `COCCCc1cc(C(F)(F)F)ccc1[C@H]1CCOc2cc(S(=O)(=O)Nc3ncc(F)cn3)ccc21` (racemic) was above 10 µM; that for `CC(C)Oc1ccc([C@@H]2CCOc3cc(S(=O)(=O)Nc4cccc(F)n4)ccc32)c(-c2ccnn2C)c1` was above 10 µM.
Turning to `O=S(=O)(Nc1ncc(F)cn1)c1ccc2c(c1)OCC[C@H]2c1ccc(C(F)(F)F)cc1-c1ccc(F)cc1`, the IC50 was above 10 µM.
`CC(C)Oc1ccc([C@H]2CCOc3cc(S(=O)(=O)Nc4cccc(F)n4)ccc32)c(-c2ccnn2C)c1`: the IC50 was above 10 µM.
Same read-out and setting: the same measure for `O=S(=O)(Nc1ncccn1)c1ccc2c(c1)OCC[C@@H]2c1ccc(C(F)(F)F)cc1O[C@@H]1CCOC1`: above 10 µM.
Same read-out and setting: the value for `O=S1(=O)CCN(c2cc(C(F)(F)F)ccc2[C@H]2CCOc3cc(S(=O)(=O)Nc4cccnn4)ccc32)CC1` (racemic) was above 10 µM; that for `COCCc1cc(C(F)(F)F)ccc1[C@H]1CCOc2cc(S(=O)(=O)Nc3ccncn3)ccc21` (racemic) was above 10 µM; that for `CCCc1cc(C(F)(F)F)ccc1[C@@H]1CCOc2cc(S(=O)(=O)Nc3ncccn3)ccc21` was above 10 µM.
On the same count and under the same terms, the value for `O=C1CCCN1c1cc(C(F)(F)F)ccc1[C@H]1CCOc2cc(S(=O)(=O)Nc3ncc(F)cn3)ccc21` was above 10 µM; that for `O=C1OCCN1c1cc(C(F)(F)F)ccc1[C@H]1CCOc2cc(S(=O)(=O)Nc3cccc(F)n3)ccc21` (racemic) was above 10 µM.
On to `O=S(=O)(Nc1cccc(F)n1)c1ccc2c(c1)OCC[C@H]2c1ccc(C(F)(F)F)cc1-n1cccn1`, for which the IC50 was above 10 µM.
On the same count and under the same terms, the same measure for `Cn1nccc1-c1cc(C(F)(F)F)ccc1[C@H]1CCOc2cc(S(=O)(=O)Nc3cnccn3)ccc21`: above 10 µM; for `Cc1cccc(NS(=O)(=O)c2ccc3c(c2)OCC[C@H]3c2ccc(C(F)(F)F)cc2-c2ccnn2C)n1`: above 10 µM; for `COCCCOc1cc(C(F)(F)F)ccc1[C@@H]1CCOc2cc(S(=O)(=O)Nc3ncccn3)ccc21`: above 10 µM.
On the same count and under the same terms, the value for `O=S(=O)(Nc1ncc(F)cn1)c1ccc2c(c1)OCC[C@H]2c1ccc(C(F)(F)F)cc1OC1CCOCC1` was above 10 µM; that for `CC(C)Oc1cccc(NS(=O)(=O)c2ccc3c(c2)OCC[C@H]3c2ccc(C(F)(F)F)cc2-c2ccnn2C)n1` was above 10 µM.
On the same count and under the same terms, the same measure for `COc1cc(C(F)(F)F)ccc1[C@@H]1CCOc2cc(S(=O)(=O)Nc3cccc(F)n3)ccc21`: above 10 µM; for `O=S1(=O)CCN(c2cc(C(F)(F)F)ccc2[C@H]2CCOc3cc(S(=O)(=O)Nc4ncccn4)ccc32)CC1`: above 10 µM.
Consider `O=S(=O)(Nc1cccnn1)c1ccc2c(c1)OCC[C@@H]2c1ccc(C(F)(F)F)cc1-c1ccc(F)cn1`, for which the half-inhibitory concentration (IC50) is above 10 µM.
Still for that read-out and setting: the value for `O=C(O)c1ccc(-c2cc(C(F)(F)F)ccc2[C@H]2CCOc3cc(S(=O)(=O)Nc4cccnn4)ccc32)cc1` (racemic) was above 10 µM; that for `Cc1ccnc(NS(=O)(=O)c2ccc3c(c2)OCC[C@@H]3c2ccc(C(F)(F)F)cc2-c2ccnn2C)n1` was above 10 µM; that for `O=S(=O)(Nc1cccc(F)n1)c1ccc2c(c1)OCC[C@H]2c1ccc(C(F)(F)F)cc1-c1ccc(F)cc1` was above 10 µM.
The same measure, in the same setting: the same measure for `Cc1nc(-c2cc(C(F)(F)F)ccc2[C@@H]2CCOc3cc(S(=O)(=O)Nc4cccc(F)n4)ccc32)cs1`: above 10 µM; for `Cn1nccc1-c1cc(C(F)(F)F)ccc1[C@@H]1CCOc2cc(S(=O)(=O)Nc3ccncn3)ccc21`: above 10 µM; for `Cc1nc(-c2cc(C(F)(F)F)ccc2[C@@H]2CCOc3cc(S(=O)(=O)Nc4ncc(F)cn4)ccc32)cs1`: above 10 µM.
On the same count and under the same terms, the same measure for `Cn1nccc1-c1cc(Cl)ccc1[C@H]1CCOc2cc(S(=O)(=O)Nc3cccc(F)n3)ccc21`: above 10 µM; for `Cn1nccc1-c1cc(C(F)(F)F)ccc1[C@@H]1CCOc2cc(S(=O)(=O)Nc3cc(F)ccn3)ccc21`: above 10 µM.
As to `O=C1COCCN1c1cc(C(F)(F)F)ccc1[C@H]1CCOc2cc(S(=O)(=O)Nc3ncccn3)ccc21`, the IC50 is above 10 µM.
Same read-out and setting: the same measure for `O=S(=O)(Nc1ncccn1)c1ccc2c(c1)OCC[C@H]2c1ccc(C(F)(F)F)cc1C1CCOCC1`: above 10 µM; for `O=S(=O)(Nc1cccc(F)n1)c1ccc2c(c1)OCC[C@@H]2c1ccc(C(F)(F)F)cc1-n1ccnn1`: above 10 µM.
In the case of `Cc1nc(-c2cc(C(F)(F)F)ccc2[C@H]2CCOc3cc(S(=O)(=O)Nc4ncccn4)ccc32)cs1`, the 50% inhibitory concentration (IC50) is above 10 µM.
In the case of `O=S1(=O)CCN(c2cc(C(F)(F)F)ccc2[C@H]2CCOc3cc(S(=O)(=O)Nc4cccc(F)n4)ccc32)CC1` (racemic), the IC50 was above 10 µM.
Same read-out and setting: the value for `COCCCOc1cc(C(F)(F)F)ccc1[C@H]1CCOc2cc(S(=O)(=O)Nc3ncc(F)cn3)ccc21` (racemic) was above 10 µM.
The same measure, in the same setting: the value for `O=C(O)c1ccc(-c2cc(C(F)(F)F)ccc2[C@@H]2CCOc3cc(S(=O)(=O)Nc4ncc(F)cn4)ccc32)cc1` was above 10 µM; that for `Cc1nc(-c2cc(C(F)(F)F)ccc2[C@@H]2CCOc3cc(S(=O)(=O)Nc4cccnn4)ccc32)co1` was above 10 µM; that for `Cn1nccc1-c1cc(C(F)(F)F)ccc1[C@@H]1CCOc2cc(S(=O)(=O)Nc3ncccc3F)ccc21` was above 10 µM.
On to `CS(=O)(=O)CCc1cc(C(F)(F)F)ccc1[C@@H]1CCOc2cc(S(=O)(=O)Nc3ccncn3)ccc21`, for which the IC50 was above 10 µM.

The nature of a further experiment: as §1. Particulars: HEK293.
Regarding `O=S(=O)(Nc1ncccn1)c1ccc2c(c1)OCC[C@H]2c1ccc(C(F)(F)F)cc1OCCCF`, the IC50 is above 10 µM.
Still for that read-out and setting: the value for `O=S(=O)(Nc1ncc(F)cn1)c1ccc2c(c1)OCC[C@@H]2c1ccc(C(F)(F)F)cc1-c1nccs1` was 0.011 µM.
Still for that read-out and setting: the same measure for `O=S(=O)(Nc1cccc(F)n1)c1ccc2c(c1)OCC[C@H]2c1ccc(C(F)(F)F)cc1O[C@H]1CCOC1`: 0.831 µM; for `O=S(=O)(Nc1ncccn1)c1ccc2c(c1)OCC[C@H]2c1ccc(C(F)(F)F)cc1O[C@H]1CCOC1`: 0.149 µM.
In the case of `O=S(=O)(Nc1ncc(F)cn1)c1ccc2c(c1)OCC[C@H]2c1ccc(C(F)(F)F)cc1-c1nccs1`, the IC50 was 1.12 µM.
In the case of `O=S(=O)(Nc1cccc(F)n1)c1ccc2c(c1)OCC[C@@H]2c1ccc(C(F)(F)F)cc1O[C@H]1CCOC1`, the IC50 is 0.0009 µM.
On the same count and under the same terms, the same measure for `O=S(=O)(Nc1ncccn1)c1ccc2c(c1)OCC[C@@H]2c1ccc(C(F)(F)F)cc1O[C@H]1CCOC1`: 0.038 µM; for `Cc1nc(-c2cc(C(F)(F)F)ccc2[C@H]2CCOc3cc(S(=O)(=O)Nc4ncc(F)cn4)ccc32)cs1`: 0.008 µM; for `O=S(=O)(Nc1ncccn1)c1ccc2c(c1)OCC[C@@H]2c1ccc(C(F)(F)F)cc1O[C@@H]1CCOC1`: 1.02 µM.
Take `O=S(=O)(Nc1ncccn1)c1ccc2c(c1)OCC[C@H]2c1ccc(C(F)(F)F)cc1O[C@@H]1CCOC1`: the IC50 is 0.083 µM.
The same measure, in the same setting: the value for `Cc1nc(-c2cc(C(F)(F)F)ccc2[C@@H]2CCOc3cc(S(=O)(=O)Nc4ncc(F)cn4)ccc32)cs1` was 0.016 µM.

The values above are taken from ChEMBL document CHEMBL5726766, “Sulfonamide compounds as voltage-gated sodium channel modulators” (2019).
